Laboratory results published in patent US11136314B2, “Forms of afatinib dimaleate” (Johnson Matthey Public Limited Company, priority 2017, dated 2021).

Experiment: Solid form stability under exposure to water / humidity
Type: physicochemical

Row | Structure (SMILES) | stability compared with afatinib dimaleate Form A (40° C., 75% RH) | stable under exposure to water vapor under ambient conditions (about 25° C., >90% RH) | stable at about 40° C., 75% RH (about 40° C., 75% RH) | stability under exposure to water (exposure to water) | completely converts to a hydrated species (40° C., 75% RH) [days]
1 | CN(C)C/C=C/C(=O)Nc1cc2c(Nc3ccc(F)c(Cl)c3)ncnc2cc1O[C@H]1CCOC1.O=C(O)/C=C\C(=O)O.O=C(O)/C=C\C(=O)O [Form Z, afatinib dimaleate] | more stable than afatinib dimaleate Form A | about 3 days | over 19 days | stable under exposure to water | –
2 | CN(C)C/C=C/C(=O)Nc1cc2c(Nc3ccc(F)c(Cl)c3)ncnc2cc1O[C@H]1CCOC1.O=C(O)/C=C\C(=O)O.O=C(O)/C=C\C(=O)O [Afatinib dimaleate Form A, afatinib dimaleate] | – | – | – | – | ≤ 11
